Experimental data: PMC5267425, “Identification of small molecule modulators of HIV-1 Tat and Rev protein accumulation” (Retrovirology, 2017)

Test system: alternative splicing of host transcripts in HeLa rtTA HIV∆Mls cells
Assay: RT-PCR of host alternative splicing events (PSI), capillary electrophoresis
Format: cell-based
Method: To assess the effect of compounds on expression/alternative splicing of cellular RNA, two approaches were used. For both, total RNA was prepared from DMSO or compound-treated cells. In the first assay, samples were assayed by medium throughput RT-PCR to determine the inclusion levels of alternatively spliced exons and splice sites located in 73 selected events. 73 primer sets containing a fluorescently (5-FAM) labeled primer for each, were used in RT-PCR. PCR products generated were denatured in formamide and quantified using ABI Prism capillary sequencer (Life Technologies). The fragment analysis was performed on the PeakScanner software (Life Technologies) in batch mode and automated using custom scripts written in Python. The inclusion level of each exon was calculated as the amount of transcripts carrying the alternative exon relative to the total amount of all transcripts detected in the PCR reaction and results are summarized for compound-treatment in comparison to DMSO treatment. In the second assay, extracted RNA was processed using the Illumina TruSeq RNA Sample Preparation Kit (Illumina) according to the manufacturer’s instructions. The cDNA library generated was validated (passed quality control on a Bioanalyzer 1000 DNA chip (Agilent)), normalized and pooled for cluster generation. cDNA libraries were sequenced on the Illumina HiSeq 2500 (paired-end, 125 bp) with version 4 chemistry following manufacturer’s protocols. The full human genome and transcriptomic sequences were downloaded from the UCSC Genome Browser (genome.ucsc.edu) database and Ensembl (www.ensembl.org), respectively, as described by Irimia et al.. Exon annotations and genomic coordinates for alternative splicing (AS) analysis were derived from tables downloaded from the UCSC Genome Browser database. To determine gene expression (GE) or alternative splicing (AS) changes in an unbiased way, the effective number of unique mappable positions in each transcript (i.e. the effective length) was determined by aligning sequences with unique transcriptomic alignment to the human genome using Bowtie. Reads with one unique genomic alignment were then aligned against the canonical transcriptome and, for each transcript, the number of reads with one unique transcriptomic alignment were counted. The expression level of genes was quantified as corrected ‘reads per kilobase of exon model per million mapped reads’ (cRPKM), a widely used metric to estimate gene expression levels. The expression cutoff was 0.5 cRPKM, corresponding to the transcript of the gene being present if there were ≥10 reads that mapped uniquely to a single genomic locus. Approximately 19,847 Ensembl annotated protein-coding genes were compared to create a gene list of differentially expressed genes. Genes were considered differentially expressed if fold changes in cRPKM was ≥2 in compound-treated versus DMSO-treated samples.

[1] = of 70 AS events, 791 30 µM, 833 2 µM

O=C(NC(=S)NNC(=O)c1ccccc1O)c1ccc(-c2ccccc2)cc1 [Compound 833, N-([2-(2-hydroxybenzoyl)hydrazino]carbonothioyl}-4-biphenylcarboxamide]
DPSI AGPAT4_1 chr6:161506598-161506735 (5227833 minus DMSO, mean n=3): -3.33% | DPSI AGPAT4_1 chr6:161507269-161507439 (5227833 minus DMSO, mean n=3): -5.00% | DPSI APLP2_1 chr11:129498717-129498884 (5227833 minus DMSO, mean n=3): -2.67% | DPSI APP_1 chr21:26291546-26291602 (5227833 minus DMSO, mean n=3): -0.67% | DPSI APP_1 chr21:26294201-26294368 (5227833 minus DMSO, mean n=3): -0.67% | DPSI ATP6V0A1_1 chr17:37919833-37920004 (5227833 minus DMSO, mean n=3): 6.67% | DPSI CA12_1 chr15:61406400-61406485 (5227833 minus DMSO, mean n=3): 0.67% | DPSI CA12_1 chr15:61407349-61407382 (5227833 minus DMSO, mean n=3): -2.67% | DPSI CASP9_1 chr1:15703693-15703840* (5227833 minus DMSO, mean n=3): -1.33% | DPSI CAST_1 chr5:96090613-96090669 (5227833 minus DMSO, mean n=3): -3.33% | DPSI CLSTN1_1 chr1:9720143-9720199 (5227833 minus DMSO, mean n=3): -17.00% | DPSI CLSTN1_2 chr1:9739126-9739155 (5227833 minus DMSO, mean n=3): -4.67% | DPSI CRBN_1 chr3:3191846-3191950 (5227833 minus DMSO, mean n=3): 0.00% | DPSI CRBN_1 chr3:3191950-3191953 (5227833 minus DMSO, mean n=3): -2.00% | DPSI CTNND1_1 chr11:57318058-57318129 (5227833 minus DMSO, mean n=3): -6.67% | DPSI DNM1L_1 chr12:32782066-32782143 (5227833 minus DMSO, mean n=3): 7.67% | DPSI DNM1L_1 chr12:32782465-32782497 (5227833 minus DMSO, mean n=3): -4.33% | DPSI DRCTNNB1A_1 chr7:22953096-22953391 (5227833 minus DMSO, mean n=3): -8.33% | DPSI EIF4A2_1 chr7:187988792-187988899 (5227833 minus DMSO, mean n=3): -10.67% | DPSI EIF4A2_1 chr7:187988899-187988904 (5227833 minus DMSO, mean n=3): -7.67% | DPSI EIF4H_1 chr7:73242512-73242572 (5227833 minus DMSO, mean n=3): -5.00% | DPSI ERC1_1 chr12:1091641-1091725 (5227833 minus DMSO, mean n=3): -11.00% | DPSI EXOC7_1 chr17:71598005-71598035 (5227833 minus DMSO, mean n=3): -3.67% | DPSI EXOC7_1 chr17:71598819-71598911 (5227833 minus DMSO, mean n=3): -5.67% | DPSI FAM62B_1 chr7:158238233-158238295 (5227833 minus DMSO, mean n=3): -4.67% | DPSI FAM104A_1 chr17:68720412-68720474 (5227833 minus DMSO, mean n=3): -5.00% | DPSI FGFR1OP2_1 chr12:27004715-27004828 (5227833 minus DMSO, mean n=3): -20.67% | DPSI FIP1L1_1 chr4:53975538-53975646 (5227833 minus DMSO, mean n=3): -14.67% | DPSI GGCT_1 chr7:30504943-30505080 (5227833 minus DMSO, mean n=3): 3.00% | DPSI GGCT_1 chr7:30506676-30506822 (5227833 minus DMSO, mean n=3): -0.33% | DPSI GLK_1 chr2:39388587-39388650 (5227833 minus DMSO, mean n=3): -13.67% | DPSI GM130_1 chr9:130069293-130069374 (5227833 minus DMSO, mean n=3): -18.33% | DPSI GRB10_1 chr7:50651400-50651538 (5227833 minus DMSO, mean n=3): 0.67% | DPSI KIF13A_1 chr6:17879324-17879428 (5227833 minus DMSO, mean n=3): -0.33% | DPSI MACF1_1 chr1:39616720-39616782 (5227833 minus DMSO, mean n=3): 14.00% | DPSI MACF1_5 chr1:39719179-39719289 (5227833 minus DMSO, mean n=3): -18.33% | DPSI MAP3K7_1 chr6:91310992-91311072 (5227833 minus DMSO, mean n=3): 2.67% | DPSI MARK3_1 chr14:103034592-103034618 (5227833 minus DMSO, mean n=3): -9.00% | DPSI MARK3_1 chr14:103036246-103036290 (5227833 minus DMSO, mean n=3): -5.33% | DPSI MBD1_1 chr18:46054554-46054721 (5227833 minus DMSO, mean n=3): -3.33% | DPSI MBNL2_1 chr13:96807051-96807104 (5227833 minus DMSO, mean n=3): 17.33% | DPSI MFF_1 chr2:227901637-227901749 (5227833 minus DMSO, mean n=3): -11.67% | DPSI MRIP_1 chr17:17024646-17024708 (5227833 minus DMSO, mean n=3): -6.33% | DPSI MVK_1 chr12:108501990-108502134 (5227833 minus DMSO, mean n=3): 15.67% | DPSI MVK_1 chr12:108503583-108503738 (5227833 minus DMSO, mean n=3): 16.67% | DPSI NAP1L1_1 chr12:74747418-74747520 (5227833 minus DMSO, mean n=3): -15.67% | DPSI NAP1L1_1 chr12:74748956-74749041 (5227833 minus DMSO, mean n=3): -18.33% | DPSI NPHP3_1 chr3:133898264-133898347 (5227833 minus DMSO, mean n=3): -6.67% | DPSI PDCL_1 chr9:124628716-124628892 (5227833 minus DMSO, mean n=3): 3.67% | DPSI POLDIP3_1 chr22:41327919-41328006 (5227833 minus DMSO, mean n=3): -17.00% | DPSI POMT1_1 chr9:133368281-133368521 (5227833 minus DMSO, mean n=3): 4.67% | DPSI POMT1_1 chr9:133371321-133371428 (5227833 minus DMSO, mean n=3): -10.00% | DPSI RAI14_1 chr5:34849436-34849522 (5227833 minus DMSO, mean n=3): 2.33% | DPSI RAN_1 chr12:129923082-129923127 (5227833 minus DMSO, mean n=3): -2.00% | DPSI RPS24_1 chr10:79467729-79467746 (5227833 minus DMSO, mean n=3): 3.00% | DPSI SEC24B_1 chr4:110622281-110622386 (5227833 minus DMSO, mean n=3): -18.67% | DPSI SETD5_1 chr3:9453533-9453572 (5227833 minus DMSO, mean n=3): -3.33% | DPSI SMN2_1 chr5_h2_hap1:475625-475826 (5227833 minus DMSO, mean n=3): 2.33% | DPSI SMN2_2 chr5_h2_hap1:466192-466246 (5227833 minus DMSO, mean n=3): -7.33% | DPSI SPAG9_1 chr17:46408223-46408261 (5227833 minus DMSO, mean n=3): -12.00% | DPSI SRPK2_1 chr2:104553464-104553557 (5227833 minus DMSO, mean n=3): -9.00% | DPSI SRPK2_1 chr2:104553930-104554023 (5227833 minus DMSO, mean n=3): 5.67% | DPSI TPM1_1 chr15:61140450-61140525 (5227833 minus DMSO, mean n=3): 1.00% | DPSI TPM1_1 chr15:61140965-61141040 (5227833 minus DMSO, mean n=3): -1.00% | DPSI TRIM37_1 chr17:54433741-54433857 (5227833 minus DMSO, mean n=3): -6.67% | DPSI ZNF827_1 chr4:146903692-146903724 (5227833 minus DMSO, mean n=3): -17.67% | DPSI ZNF827_1 chr4:146905581-146905589 (5227833 minus DMSO, mean n=3): 0.00% | DPSI NUMB_2 chr14:72815742-72815885 (5227833 minus DMSO, mean n=3, table row r49): 3.67% | DPSI NUMB_2 chr14:72815742-72815885 (5227833 minus DMSO, mean n=3, table row r63): 6.33% | AS events with DPSI ≤ -10% [1]: 10 | AS events with DPSI ≥ 10% [1]: 1 | AS events with P ≤ 0.05 [1]: 22
